Data on 2 compounds can be found in ChEMBL document CHEMBL4152276, “Design, synthesis and biological evaluation of N-phenyl-(2,4-dihydroxypyrimidine-5-sulfonamido)benzoyl hydrazide derivatives as thymidylate synthase (TS) inhibitors and as potential antitumor drugs” (Eur J Med Chem, 2018).

The source made the active and inactive calls. The rule behind the calls is not given here.

The term IC50 denotes the concentration needed to halve the response being measured. Low readings indicate inhibition by little substance, high ones a need for much substance.

Series [1] has as its system A549. Description: Antiproliferative activity against human A549 cells after 24 hrs by MTT assay. It is filed as functional, cell-based. The following applies: A549, 24 h. For orientation: Formazan colour is commonly taken as a measure of viable cells.
The test system of series [2] is OVCAR-3. As to the kind of experiment: Antiproliferative activity against human OVCAR3 cells after 24 hrs by MTT assay. It is filed as functional, cell-based. The conditions noted are these: OVCAR-3, 24 h.
Series [3] has as its system SGC-7901. As to the kind of experiment: Antiproliferative activity against human SGC7901 cells after 24 hrs by MTT assay. It is filed as functional, cell-based. The following applies: SGC-7901, 24 h.
In series [4] the test system is MDA-MB-231. Description: Antiproliferative activity against human MDA-MB-231 cells after 24 hrs by MTT assay. It is filed as functional, cell-based. The following applies: MDA-MB-231, 24 h.
The subject of series [5] is A549. As to the kind of experiment: Antiproliferative activity against human A549 cells at 0.512 uM after 24 hrs by MTT assay relative to control. It is filed as functional.
Series [6] concerns A549. Description: Antiproliferative activity against human A549 cells at 1.28 uM after 24 hrs by MTT assay relative to control. It is filed as functional.
The subject of series [7] is A549. Description: Antiproliferative activity against human A549 cells at 3.2 uM after 24 hrs by MTT assay relative to control. It is filed as functional.
Series [8] has as its system A549. Description: Antiproliferative activity against human A549 cells at 8 uM after 24 hrs by MTT assay relative to control. It is filed as functional.
Series [9] concerns A549. Description: Antiproliferative activity against human A549 cells at 20 uM after 24 hrs by MTT assay relative to control. It is filed as functional.
Series [10] is described as follows: Selectivity index, ratio of CC50 for HPAEpiC to IC50 for human A549 cells. It is filed as toxicity. The following applies: HPAEpiC cells (CC50) versus A549 cells (IC50).
The nature of series [11]: Selectivity index, ratio of CC50 for human IOSE80 cells to IC50 for human A549 cells. It is filed as toxicity. The following applies: IOSE80 cells (CC50) versus A549 cells (IC50).
Series [12] can be described thus: Selectivity index, ratio of CC50 for human GES1 cells to IC50 for human A549 cells. It is filed as toxicity. The conditions noted are these: GES1 cells (CC50) versus A549 cells (IC50).
Series [13] can be described thus: Selectivity index, ratio of CC50 for human HTB125 cells to IC50 for human A549 cells. It is filed as toxicity. The conditions noted are these: HTB125 cells (CC50) versus A549 cells (IC50).
In series [14] the test system is A549. Description: Induction of apoptosis in human A549 cells assessed as early apoptotic cells at 0.5 uM after 24 hrs by annexin V-FITC/propidium iodide staining-based flow cytometric method (reference value: 1.2%). It is filed as functional. (In general: A flow cytometer gives signals particle by particle.)
The test system of series [15] is A549. As to the kind of experiment: Induction of apoptosis in human A549 cells assessed as late apoptotic cells at 0.5 uM after 24 hrs by annexin V-FITC/propidium iodide staining-based flow cytometric method (reference value: 1.1%). It is filed as functional.
Series [16] concerns A549. Description: Induction of apoptosis in human A549 cells assessed as necrotic cells at 0.5 uM after 24 hrs by annexin V-FITC/propidium iodide staining-based flow cytometric method (reference value: 0%). It is filed as functional.
Series [17] concerns A549. As to the kind of experiment: Induction of apoptosis in human A549 cells assessed as viable cells at 0.5 uM after 24 hrs by annexin V-FITC/propidium iodide staining-based flow cytometric method (reference value: 97.7%). It is filed as functional. The conditions noted are these: A549, 24 h, read-out: Activity.
Series [18] relates to A549. As to the kind of experiment: Induction of apoptosis in human A549 cells assessed as early apoptotic cells at 1 uM after 24 hrs by annexin V-FITC/propidium iodide staining-based flow cytometric method (reference value: 1.2%). It is filed as functional.
The test system of series [19] is A549. Description: Induction of apoptosis in human A549 cells assessed as late apoptotic cells at 1 uM after 24 hrs by annexin V-FITC/propidium iodide staining-based flow cytometric method (reference value: 1.1%). It is filed as functional.
Series [20] has as its system A549. Description: Induction of apoptosis in human A549 cells assessed as necrotic cells at 1 uM after 24 hrs by annexin V-FITC/propidium iodide staining-based flow cytometric method (reference value: 0%). It is filed as functional.
The test system of series [21] is A549. As to the kind of experiment: Induction of apoptosis in human A549 cells assessed as viable cells at 1 uM after 24 hrs by annexin V-FITC/propidium iodide staining-based flow cytometric method (reference value: 97.7%). The following applies: A549, 24 h, read-out: Activity. It is filed as functional.
Series [22] relates to A549. As to the kind of experiment: Induction of apoptosis in human A549 cells assessed as early apoptotic cells at 1.5 uM after 24 hrs by annexin V-FITC/propidium iodide staining-based flow cytometric method (reference value: 1.2%). It is filed as functional.
Series [23] has as its system A549. Description: Induction of apoptosis in human A549 cells assessed as late apoptotic cells at 1.5 uM after 24 hrs by annexin V-FITC/propidium iodide staining-based flow cytometric method (reference value: 1.1%). It is filed as functional.
The test system of series [24] is A549. Description: Induction of apoptosis in human A549 cells assessed as necrotic cells at 1.5 uM after 24 hrs by annexin V-FITC/propidium iodide staining-based flow cytometric method (reference value: 0%). It is filed as functional.
Series [25] concerns A549. As to the kind of experiment: Induction of apoptosis in human A549 cells assessed as viable cells at 1.5 uM after 24 hrs by annexin V-FITC/propidium iodide staining-based flow cytometric method (reference value: 97.7%). It is filed as functional. The conditions noted are these: A549, 24 h, read-out: Activity.
For series [26], the system named is A549. Description: Induction of apoptosis in human A549 cells assessed as early apoptotic cells at 3 uM after 24 hrs by annexin V-FITC/propidium iodide staining-based flow cytometric method (reference value: 1.2%). It is filed as functional.
Series [27] deals with A549. As to the kind of experiment: Induction of apoptosis in human A549 cells assessed as late apoptotic cells at 3 uM after 24 hrs by annexin V-FITC/propidium iodide staining-based flow cytometric method (reference value: 1.1%). It is filed as functional.
For series [28], the system named is A549. As to the kind of experiment: Induction of apoptosis in human A549 cells assessed as necrotic cells at 3 uM after 24 hrs by annexin V-FITC/propidium iodide staining-based flow cytometric method (reference value: 0%). It is filed as functional.
Series [29] deals with A549. Description: Induction of apoptosis in human A549 cells assessed as viable cells at 3 uM after 24 hrs by annexin V-FITC/propidium iodide staining-based flow cytometric method (reference value: 97.7%). It is filed as functional. The conditions noted are these: A549, 24 h, read-out: Activity.
The subject of series [30] is A549. Description: Induction of apoptosis in human A549 cells assessed as upregulation of bax protein expression at 0.5 to 3 uM after 24 hrs by Western blot method. It is filed as functional, cell-based.
For series [31], the system named is A549. Description: Induction of apoptosis in human A549 cells assessed as increase in cleaved caspase-3 levels at 0.5 to 3 uM after 24 hrs by Western blot method. It is filed as functional, cell-based. In general terms: Immunoblotting shows a protein as a band on a membrane.
For series [32], the system named is A549. As to the kind of experiment: Induction of apoptosis in human A549 cells assessed as decrease in ratio of Bcl2/Bax at 0.5 uM after 24 hrs by Western blot method relative to control. It is filed as functional.
Series [33] relates to A549. Description: Induction of apoptosis in human A549 cells assessed as decrease in ratio of Bcl2/Bax at 1 uM after 24 hrs by Western blot method relative to control. It is filed as functional.
In series [34] the test system is A549. As to the kind of experiment: Induction of apoptosis in human A549 cells assessed as decrease in ratio of Bcl2/Bax at 1.5 uM after 24 hrs by Western blot method relative to control. It is filed as functional.
Series [35] has as its system A549. As to the kind of experiment: Induction of apoptosis in human A549 cells assessed as decrease in ratio of Bcl2/Bax at 3 uM after 24 hrs by Western blot method relative to control. It is filed as functional.

In the case of `O=C(NNC(=O)c1ccccc1NS(=O)(=O)c1cnc(O)nc1O)c1cccc(Cl)c1`, the IC50 in series [1] is 1260 nM; in series [2], 2.08 µM; in [3], 1.82 µM; in [4], 4.42 µM. Further, the Activity in series [5] was found to be 35.83%; in series [6], 51.21%; in series [7] it was 55.39%; in series [8], 66.28%; in [9], 82.54%; in [14] it was 6.9%. Besides, the Activity in [15] is on record as 1.6%; in series [16], 0.1%; in series [18] it was 9.8%; in [19], 2.7%; in series [20], 0.1%; in series [22], 19.6%. The Activity in [23] came out at 2.5%; in series [24], 0%; in series [26], 35.5%; in series [27], 3.9%; in series [28], 0.4%. Further, the selectivity ratio was 16.7 in series [10], 11.3 in series [11], 14.2 in series [12] and 5.73 in series [13]. The viability at 0.5 µM in series [17] came to 91.4%. For the same compound, the viability at 1 µM in series [21] was determined as 87.4%. Besides, the viability at 1.5 µM in series [25] worked out at 77.9%. The viability at 3 µM in series [29] was 60.2%. Moreover, the result in series [30] and in series [31] was Active. For the same compound, the “fold change (FC)” value in series [32] was determined as 0.8; in [33], 0.54; in series [34] it was 0.3; in series [35] it was 0.17.

Take `Nc1nc2[nH]cc(CCc3ccc(C(=O)N[C@@H](CCC(=O)O)C(=O)O)cc3)c2c(=O)[nH]1` [PEMETREXED]: the IC50 stood at 3310 nM in series [1], 6.9 µM in series [2], 9.08 µM in [3] and 3.85 µM in series [4]. Besides, the Activity in [5] came out at 22.93%; in series [6], 49.43%; in [7], 56.2%; in series [8], 61.82%; in [9], 64.42%. The selectivity ratio came out at 7.51 in series [10], 3.59 in series [11], 3.22 in series [12] and 6.02 in series [13].
